In ChEMBL document CHEMBL3393020, “Biofilm inhibition of linezolid-like Schiff bases: synthesis, biological activity, molecular docking and in silico ADME prediction” (Bioorg Med Chem Lett, 2015):
Converted amounts (≈) assume the structure as drawn. The source made the active and inactive calls. The rule behind the calls is not given here.

Legend:
Bacillus subtilis = assay: Antibacterial activity against Bacillus subtilis NCIM-2063 incubated for 24 hrs by two fold serial dilution method; type: functional; details: NCIM-2063, 24 h
Pseudomonas aeruginosa [1] = assay: Effect on planktonic cells growth of Pseudomonas aeruginosa PAO1 incubated for 15 mins by field emission scanning electron microscopy; type: organism-based; details: 0.25 h
Pseudomonas aeruginosa [2] = assay: Inhibition of biofilm formation of Pseudomonas aeruginosa PAO1 incubated for 18 hrs by crystal violet staining based spectroscopy; type: functional, organism-based; details: PAO1, 18 h
Escherichia coli = assay: Antibacterial activity against Escherichia coli NCIM-2256 incubated for 24 hrs by two fold serial dilution method; type: functional; details: NCIM-2256, 24 h
[3] = Retardation factor of the compound; type: physicochemical
Pseudomonas aeruginosa [4] = assay: Inhibition of biofilm formation of Pseudomonas aeruginosa PAO1 incubated for 15 mins by field emission scanning electron microscopy; type: functional, organism-based
Pseudomonas aeruginosa [5] = assay: Antibacterial activity against Pseudomonas aeruginosa NCIM-2036 incubated for 24 hrs by two fold serial dilution method; type: functional; details: NCIM-2036, 24 h

Row | MIC (Bacillus subtilis) [µg/mL] | IC50 (Pseudomonas aeruginosa [2]) [µM] | MIC (Escherichia coli) [µg/mL] | Rf [3] | MIC (Pseudomonas aeruginosa [5]) [µg/mL] | SMILES | Activity (Pseudomonas aeruginosa [1]) | inhibition (Pseudomonas aeruginosa [4])
1 | 10 (≈ 26.1 µM) | 15.6 | 10 (≈ 26.1 µM) | 0.44 | 3.5 (≈ 9.12 µM) | Cc1cccc2cc(/C=N/c3ccc(N4CCOCC4)c(F)c3)c(Cl)nc12 | Non-toxic | Active
2 | 20 (≈ 56.6 µM) | 27.5 | 25 (≈ 70.8 µM) | 0.48 | 30 (≈ 84.9 µM) | Fc1cc(/N=C/c2c(Cl)cccc2Cl)ccc1N1CCOCC1 |  | 
3 | 20 (≈ 58.1 µM) | 27.9 | 20 (≈ 58.1 µM) | 0.55 | 20 (≈ 58.1 µM) | COc1ccc(/C=N/c2ccc(N3CCOCC3)c(F)c2)cc1OC |  | 
4 | 3 (≈ 8.89 µM) | 15.9 | 2 (≈ 5.93 µM) |  | 2.5 (≈ 7.41 µM) | CC(=O)NC[C@H]1CN(c2ccc(N3CCOCC3)c(F)c2)C(=O)O1 [LINEZOLID] |  | 
5 | 30 (≈ 106 µM) | 39.4 | 35 (≈ 123 µM) | 0.64 | 20 (≈ 70.3 µM) | Fc1cc(/N=C/c2ccccc2)ccc1N1CCOCC1 |  | 
6 | 20 (≈ 66.2 µM) | 31.1 | 30 (≈ 99.2 µM) | 0.52 | 20 (≈ 66.2 µM) | Fc1ccc(/C=N/c2ccc(N3CCOCC3)c(F)c2)cc1 |  | 
7 | 25 (≈ 79 µM) | 31.6 | 30 (≈ 94.8 µM) | 0.59 | 20 (≈ 63.2 µM) | Oc1ccc(/C=N/c2ccc(N3CCOCC3)c(F)c2)cc1O |  | 
8 | 35 (≈ 108 µM) | 29.1 | 40 (≈ 124 µM) | 0.52 | 25 (≈ 77.3 µM) | Fc1cc(/N=C/c2c[nH]c3ccccc23)ccc1N1CCOCC1 |  | 
9 | 5 (≈ 13.5 µM) | 13 | 10 (≈ 27 µM) | 0.46 | 2.5 (≈ 6.76 µM) | Fc1cc(/N=C/c2cc3ccccc3nc2Cl)ccc1N1CCOCC1 | Non-toxic | Active
10 | 40 (≈ 146 µM) | 35.9 | 35 (≈ 128 µM) | 0.61 | 30 (≈ 109 µM) | Fc1cc(/N=C/c2ccoc2)ccc1N1CCOCC1 |  | 

Row | SMILES | MIC (Bacillus subtilis) [µg/mL] | IC50 (Pseudomonas aeruginosa [2]) [µM] | MIC (Escherichia coli) [µg/mL] | Rf [3] | MIC (Pseudomonas aeruginosa [5]) [µg/mL] | Activity (Pseudomonas aeruginosa [1]) | inhibition (Pseudomonas aeruginosa [4])
11 | O=C(O)c1cn(C2CC2)c2cc(N3CCNCC3)c(F)cc2c1=O [CIPROFLOXACIN] |  |  | 25 (≈ 75.4 µM) |  |  |  | 
